According to PubChem BioAssay AID248 (DTP/NCI, 2004):
Several values for one entry are separate records, joined by “and”; a condition that tells them apart may be missing. Identical values can stand only once. Toxic doses and inconclusive results are not listed. Cut-off read from the data, not from the text of the source: active = T/C of 150% or more; inactive = T/C below 125%.

Test system: L1210 leukemia ip in BDF1 mice, survival T/C
Test: NCI In Vivo Anticancer Drug Screen. Data for tumor model L1210 Leukemia (intraperitoneal) in B6D2F1 (BDF1) mice
Conditions: endpoint: mean survival time, higher = longer survival
In short: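 Transplantable tumor model; survival measured in treated vs vehicle control mice. Value = treated/control.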

[1] = dose: 50.0 mg/kg/injection, schedule: Q01DX009 (ip), vehicle: saline
[2] = dose: 100.0 mg/kg/injection, schedule: Q01DX009 (ip), vehicle: saline
[3] = dose: 100.0 mg/kg/injection, schedule: Q04DX003 (ip), vehicle: saline
[4] = dose: 200.0 mg/kg/injection, schedule: Q04DX003 (ip), vehicle: saline
[5] = dose: 100.0 mg/kg/injection, schedule: Q01DX001 (ip), vehicle: saline
[6] = dose: 200.0 mg/kg/injection, schedule: Q01DX001 (ip), vehicle: saline
[7] = dose: 100.0 mg/kg/injection, schedule: Q04DX003 (ip), vehicle: Klucel (hydroxypropylcellulose) (HPC)
[8] = dose: 200.0 mg/kg/injection, schedule: Q04DX003 (ip), vehicle: Klucel (hydroxypropylcellulose) (HPC)
[9] = dose: 400.0 mg/kg/injection, schedule: Q04DX003 (ip), vehicle: Klucel (hydroxypropylcellulose) (HPC)
[10] = dose: 200.0 mg/kg/injection, schedule: Q01DX009 (ip), vehicle: saline
[11] = dose: 400.0 mg/kg/injection, schedule: Q01DX009 (ip), vehicle: saline
[12] = dose: 200.0 mg/kg/injection, schedule: Q01DX001 (ip), vehicle: carboxymethylcellulose (CMC)
[13] = dose: 400.0 mg/kg/injection, schedule: Q01DX001 (ip), vehicle: carboxymethylcellulose (CMC)
[14] = dose: 100.0 mg/kg/injection, schedule: Q01DX009 (ip), vehicle: Klucel (hydroxypropylcellulose) (HPC)
[15] = dose: 200.0 mg/kg/injection, schedule: Q01DX009 (ip), vehicle: Klucel (hydroxypropylcellulose) (HPC)
[16] = dose: 400.0 mg/kg/injection, schedule: Q01DX009 (ip), vehicle: Klucel (hydroxypropylcellulose) (HPC)
[17] = dose: 50.0 mg/kg/injection, schedule: Q04DX002 (ip), vehicle: Klucel (hydroxypropylcellulose) (HPC)
[18] = dose: 100.0 mg/kg/injection, schedule: Q04DX002 (ip), vehicle: Klucel (hydroxypropylcellulose) (HPC)

Measured: T/C

CCC(C)COC(=O)c1ccccc1-c1ccccc1C(=O)OCC(C)CC (stereo unspecified)
inactive: dose: 100.0 mg/kg/injection, schedule: Q01DX001 (ip), vehicle: other 96 % of control | dose: 200.0 mg/kg/injection, schedule: Q01DX001 (ip), vehicle: other 98 % of control | dose: 400.0 mg/kg/injection, schedule: Q01DX001 (ip), vehicle: other 96 % of control

CN(CCN(C)Cc1ccccc1)Cc1ccccc1
inactive: [1] 98 % of control | [2] 101 % of control | [3] 103 % of control | [4] 98 % of control

CC(=O)c1cc(S(=O)(=O)c2cc(C(C)=O)c(O)cc2OCc2ccccc2)c(OCc2ccccc2)cc1O
inactive: dose: 100.0 mg/kg/injection, schedule: Q04DX002 (ip), vehicle: carboxymethylcellulose (CMC) 103 % of control | dose: 200.0 mg/kg/injection, schedule: Q04DX002 (ip), vehicle: carboxymethylcellulose (CMC) 92 % of control | dose: 400.0 mg/kg/injection, schedule: Q04DX002 (ip), vehicle: carboxymethylcellulose (CMC) 88 % of control

Nc1nc(Cl)[nH]c1-c1ncn[nH]1
inactive: [5] 92 % of control | [6] 106 % of control

CCOC(=O)C1CCc2ccccc2CC1
inactive: dose: 200.0 mg/kg/injection, schedule: Q04DX003 (ip), vehicle: acetone 100 % of control

CC(C(c1ccc(Br)cc1)c1ccccc1Cl)[N+](=O)[O-] (stereo unspecified)
inactive: [3] 95 % of control | [4] 86 % of control | dose: 400.0 mg/kg/injection, schedule: Q04DX003 (ip), vehicle: saline 101 % of control

Cc1ncc(C(=O)O)s1
inactive: [7] 90 % of control | [8] 95 % of control | [9] 98 % of control

C=C(C(=C)C(=O)O)C(=O)O
inactive: [5] 101 % of control | [2] 98 % of control | [6] 101 % of control | [10] 107 % of control | dose: 400.0 mg/kg/injection, schedule: Q01DX001 (ip), vehicle: saline 98 % of control | [11] 102 % of control

CCOC(=O)CCC(NC(=O)c1ccc(N(C)C(=O)OCc2ccccc2)cc1)C(=O)OCC (stereo unspecified)
inactive: [12] 100 % of control | [13] 94 % of control

CCC[CH2][Sn]1([CH2]CCC)[O]C(=O)CCC(=O)[O]1
inactive: dose: 1.56 mg/kg/injection, schedule: Q01DX009 (ip), vehicle: Klucel (hydroxypropylcellulose) (HPC) 113 % of control | dose: 3.12 mg/kg/injection, schedule: Q01DX009 (ip), vehicle: Klucel (hydroxypropylcellulose) (HPC) 87 % of control

CCN(CCCl)c1ccc(N=Nc2cc(Cl)ccc2Cl)cc1
inactive: [14] 103 % of control | [7] 104 % of control | [15] 115 % of control | [8] 97 % of control | [16] 105 % of control | [9] 104 % of control

O=C(O)c1ccccc1C(=O)c1ccc(CBr)cc1
inactive: dose: 6.25 mg/kg/injection, schedule: Q01DX009 (ip), vehicle: saline with Tween-80 92 % of control | dose: 12.5 mg/kg/injection, schedule: Q01DX009 (ip), vehicle: saline with Tween-80 104 % of control | dose: 25.0 mg/kg/injection, schedule: Q01DX009 (ip), vehicle: saline with Tween-80 97 % of control

CCCCCCCCCC(=O)CCCCCC
inactive: [14] 96 % of control | [7] 95 % of control | [15] 98 % of control | [8] 103 % of control | [16] 107 % of control | [9] 93 % of control

CCn1c2ccccc2c2cc3c(cc21)C(C)=NCC3
inactive: dose: 25.0 mg/kg/injection, schedule: Q04DX002 (ip), vehicle: Klucel (hydroxypropylcellulose) (HPC) 112 % of control | [17] 102 % of control | [18] 102 % of control

COc1cc(/C=N\N=C\c2ccc(OC(=O)c3cc(OC)c(OC)c(OC)c3)c(OC)c2)ccc1OC(=O)c1cc(OC)c(OC)c(OC)c1
inactive: [14] 95 % of control | [15] 95 % of control | [16] 102 % of control

CC(=O)Oc1ccc(OC(C)=O)c2c1CC1(C)OC1(C)C2 (stereo unspecified)
inactive: dose: 25.0 mg/kg/injection, schedule: Q01DX009 (ip), vehicle: saline 104 % of control | [1] 91 % of control | [2] 89 % of control | [10] 93 % of control | [11] 89 % of control

Ic1c2ccccc2cc2ccccc12
inactive: [17] 95 % of control and 123 % of control | [18] 103 % of control and 86 % of control | dose: 200.0 mg/kg/injection, schedule: Q04DX002 (ip), vehicle: Klucel (hydroxypropylcellulose) (HPC) 108 % of control and 92 % of control | dose: 400.0 mg/kg/injection, schedule: Q04DX002 (ip), vehicle: Klucel (hydroxypropylcellulose) (HPC) 92 % of control

c1ccc2c(c1)N=C1CCCC3CCCC123 (stereo unspecified)
inactive: dose: 100.0 mg/kg/injection, schedule: Q## X003 (ip), vehicle: saline 98 % of control | dose: 200.0 mg/kg/injection, schedule: Q## X003 (ip), vehicle: saline 104 % of control | dose: 400.0 mg/kg/injection, schedule: Q## X003 (ip), vehicle: saline 96 % of control

ClCCn1nc2c(c1-c1ccc(Cl)cc1)CCc1ccccc1-2
inactive: dose: 100.0 mg/kg/injection, schedule: Q04DX003 (ip), vehicle: gum acacia 92 % of control | dose: 200.0 mg/kg/injection, schedule: Q04DX003 (ip), vehicle: gum acacia 98 % of control | dose: 400.0 mg/kg/injection, schedule: Q04DX003 (ip), vehicle: gum acacia 95 % of control

Cc1cccc(N)n1
inactive: dose: 25.0 mg/kg/injection, schedule: Q04DX002 (ip), vehicle: saline 89 % of control | dose: 50.0 mg/kg/injection, schedule: Q04DX002 (ip), vehicle: saline 92 % of control

CN1COc2c(nc(-c3ccccc3)[nH]c2=O)C1
inactive: dose: 50.0 mg/kg/injection, schedule: Q01DX001 (ip), vehicle: carboxymethylcellulose (CMC) 101 % of control | dose: 100.0 mg/kg/injection, schedule: Q01DX001 (ip), vehicle: carboxymethylcellulose (CMC) 98 % of control | [12] 98 % of control | [13] 95 % of control
